Laboratory results from PMC3691274, “Unraveling the Activation Mechanism of the Potato Tuber ADP-Glucose Pyrophosphorylase” (PLoS ONE, 2013).

How the values were obtained:
[1] = target: T1, potato tuber ADP-Glc PPase (StuS/StuL) (Solanum tuberosum, UniProt P23509+Q00081); settings: read-out: A 0.5; allosteric activator; 1.5 mM ATP, 0.5 mM [14C]Glc-1P, 7 mM MgCl2, 50 mM HEPPS pH 8.0, 37°C
T1 sequence (P23509 71-521 limits assumed): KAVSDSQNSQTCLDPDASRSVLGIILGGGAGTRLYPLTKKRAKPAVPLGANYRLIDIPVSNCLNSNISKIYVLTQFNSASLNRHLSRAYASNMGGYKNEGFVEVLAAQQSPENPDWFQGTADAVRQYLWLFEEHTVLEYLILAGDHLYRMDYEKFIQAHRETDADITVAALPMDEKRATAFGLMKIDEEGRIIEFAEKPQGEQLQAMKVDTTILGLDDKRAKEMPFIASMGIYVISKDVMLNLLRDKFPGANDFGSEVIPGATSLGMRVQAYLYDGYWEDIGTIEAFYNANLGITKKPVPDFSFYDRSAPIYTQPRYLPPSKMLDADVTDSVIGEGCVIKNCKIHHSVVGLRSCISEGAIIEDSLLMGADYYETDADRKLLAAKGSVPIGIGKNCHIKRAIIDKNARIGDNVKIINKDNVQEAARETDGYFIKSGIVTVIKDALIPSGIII
T1 sequence (Q00081 7-470): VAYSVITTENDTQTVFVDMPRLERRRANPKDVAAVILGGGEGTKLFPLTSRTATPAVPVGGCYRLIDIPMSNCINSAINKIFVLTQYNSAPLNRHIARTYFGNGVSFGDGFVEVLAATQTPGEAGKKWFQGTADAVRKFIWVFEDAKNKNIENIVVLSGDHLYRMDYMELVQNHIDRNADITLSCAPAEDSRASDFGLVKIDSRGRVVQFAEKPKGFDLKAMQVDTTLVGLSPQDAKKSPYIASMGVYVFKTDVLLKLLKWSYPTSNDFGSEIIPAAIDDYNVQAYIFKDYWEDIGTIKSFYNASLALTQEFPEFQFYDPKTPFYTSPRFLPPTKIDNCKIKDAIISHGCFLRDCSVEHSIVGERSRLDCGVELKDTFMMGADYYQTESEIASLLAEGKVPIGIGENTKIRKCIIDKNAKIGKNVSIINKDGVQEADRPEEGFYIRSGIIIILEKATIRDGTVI

[2] = target: T2, Anabaena ADP-Glc PPase (Ana WT) (Nostoc sp. PCC 7120 = FACHB-418, UniProt P30521); test: colorimetric Pi release assay (PPi hydrolysed by pyrophosphatase), Hill fit; type: biochemical; settings: read-out: A 0.5
T2 construct: gene glgC; recombinant from plasmid pAnaE3a in E. coli AC70R1-504, purified, homotetramer, no tag mentioned
T2 sequence (P30521 whole entry): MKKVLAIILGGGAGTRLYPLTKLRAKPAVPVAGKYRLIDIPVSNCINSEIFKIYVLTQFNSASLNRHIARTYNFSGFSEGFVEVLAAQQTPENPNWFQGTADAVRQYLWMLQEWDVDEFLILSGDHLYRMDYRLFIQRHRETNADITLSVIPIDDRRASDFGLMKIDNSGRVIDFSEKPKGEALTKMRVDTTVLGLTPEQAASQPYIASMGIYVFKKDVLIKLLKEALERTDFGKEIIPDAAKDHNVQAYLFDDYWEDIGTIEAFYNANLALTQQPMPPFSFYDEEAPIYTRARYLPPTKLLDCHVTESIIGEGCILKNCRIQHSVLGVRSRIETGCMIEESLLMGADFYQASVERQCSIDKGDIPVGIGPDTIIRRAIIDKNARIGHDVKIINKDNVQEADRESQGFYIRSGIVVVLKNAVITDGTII
Description: (§1) colorimetric Pi release assay (PPi hydrolysed by pyrophosphatase), Hill fit on Anabaena ADP-Glc PPase (Ana WT)

Anabaena ADP-Glc PPase [3] = target: T3, Anabaena ADP-Glc PPase (Nostoc sp. PCC 7120 = FACHB-418, UniProt P30521, Q58A); test: as above; type: biochemical; settings: read-out: A 0.5
T3 construct: gene glgC; recombinant from plasmid pAnaE3a in E. coli AC70R1-504, purified, homotetramer, no tag mentioned
T3 sequence (P30521 whole entry Q58A): as the sequence (P30521 whole entry) above, with Q58A counted along it
Description: as §1

Anabaena ADP-Glc PPase [4] = target: T4, Anabaena ADP-Glc PPase (Nostoc sp. PCC 7120 = FACHB-418, UniProt P30521, W96A); test: as above; type: biochemical; settings: read-out: A 0.5
T4 construct: gene glgC; recombinant from plasmid pAnaE3a in E. coli AC70R1-504, purified, homotetramer, no tag mentioned
T4 sequence (P30521 whole entry W96A): as the sequence (P30521 whole entry) above, with W96A counted along it
Description: as §1

EC50 [1]: 54 ± 4 µM
EC50 [2]: 76 ± 4 µM
EC50 (Anabaena ADP-Glc PPase [3]): 95 ± 8 µM
EC50 (Anabaena ADP-Glc PPase [4]): 83 ± 8 µM
SMILES: O=C(O)[C@H](O)COP(=O)(O)O [3-PGA, 3-phosphoglycerate]
